This passage reports MIC results from ChEMBL document CHEMBL1121647, “Synthesis and antiviral properties of (Z)-5-(2-bromovinyl)-2'-deoxyuridine” (1981).

Holding throughout (assay type): functional
Assay [1] has as its system Human alphaherpesvirus 2. Put plainly: Minimum inhibitory concentration required to reduce HSV-2 (Lyons) strain-induced cytopathogenicity in primary rabbit kidney cell cultures. In general terms: Damage to the host cells serves as the signal in cytopathic effect assays.
Assay [2] has as its system Human alphaherpesvirus 1. The assay can be described thus: Minimum inhibitory concentration required to reduce HSV-1 (McIntyre) strain-induced cytopathogenicity in primary rabbit kidney cell cultures.
The test system of assay [3] is Human alphaherpesvirus 1. The assay can be described thus: Minimum inhibitory concentration required to reduce HSV-1 (KOS) strain-induced cytopathogenicity in primary rabbit kidney cell cultures.
Assay [4] deals with Human alphaherpesvirus 2. Put plainly: Minimum inhibitory concentration required to reduce HSV-2 (G) strain-induced cytopathogenicity in primary rabbit kidney cell cultures.
The subject of assay [5] is Human alphaherpesvirus 2. Put plainly: Minimum inhibitory concentration required to reduce HSV-2 (196) strain-induced cytopathogenicity in primary rabbit kidney cell cultures.
Assay [6] has as its system Vesicular stomatitis virus. Put plainly: Minimum inhibitory concentration required to reduce vesicular stomatis virus-induced cytopathogenicity in primary rabbit kidney cell cultures.
Assay [7] deals with Human alphaherpesvirus 1. The assay can be described thus: Minimum inhibitory concentration required to reduce HSV-1 (F) strain-induced cytopathogenicity in primary rabbit kidney cell cultures.
Assay [8] concerns Human alphaherpesvirus 2. Put plainly: Antiviral activity expressed as minimum HSV-2 (Lyons) strain-induced cytopathogenicity in primary rabbit kidney cell cultures.

Converted amounts (≈) assume the structure as drawn. Where only a bound is given, the exact number is not on record here.

On to `O=c1[nH]c(=O)n([C@H]2C[C@H](O)[C@@H](CO)O2)cc1/C=C\Br`, for which the MIC with Human alphaherpesvirus 2 [1] is 4 µg/mL (≈ 12 µM); with Human alphaherpesvirus 1 [2] it was 1 µg/mL (≈ 3 µM); against Human alphaherpesvirus 1 [3] it was 4 µg/mL (≈ 12 µM); against Human alphaherpesvirus 2 [4] it was 2 µg/mL (≈ 6 µM); with Human alphaherpesvirus 2 [5], 4 µg/mL (≈ 12 µM); in assay [6], over 200 µg/mL. This compound also had an MIC against Human alphaherpesvirus 1 [7] of 2 µg/mL (≈ 6 µM).
As for `O=c1[nH]c(=O)n([C@H]2C[C@H](O)[C@@H](CO)O2)cc1/C=C/Br` [BRIVUDINE], the MIC in the assay with Human alphaherpesvirus 2 [8] is 0.4 µg/mL (≈ 1.2 µM); against Human alphaherpesvirus 1 [2], 0.01 µg/mL (≈ 0.03 µM); against Human alphaherpesvirus 1 [3], 0.02 µg/mL (≈ 0.06 µM); in the assay on Human alphaherpesvirus 2 [4], 0.7 µg/mL (≈ 2.1 µM); in the assay with Human alphaherpesvirus 2 [5], 0.4 µg/mL (≈ 1.2 µM); in assay [6], over 200 µg/mL. Further, the MIC in the assay on Human alphaherpesvirus 1 [7] is 0.02 µg/mL (≈ 0.06 µM).
As for `O=c1[nH]c(=O)n([C@H]2C[C@H](O)[C@@H](CO)O2)cc1I` [IDOXURIDINE], the MIC in the assay with Human alphaherpesvirus 2 [8] is 0.2 µg/mL (≈ 0.565 µM); against Human alphaherpesvirus 1 [2] it was 0.2 µg/mL (≈ 0.565 µM); in the assay on Human alphaherpesvirus 1 [3], 0.2 µg/mL (≈ 0.565 µM); in the assay with Human alphaherpesvirus 2 [4] it was 0.4 µg/mL (≈ 1.13 µM); against Human alphaherpesvirus 2 [5], 0.4 µg/mL (≈ 1.13 µM); in assay [6], over 200 µg/mL. In addition, the MIC with Human alphaherpesvirus 1 [7] turned out to be 0.2 µg/mL (≈ 0.565 µM).
